Here are results for 11 compounds from patent US20240343704A1, “HALO-SUBSTITUTED AMINO PYRIDINE COMPOUNDS AS INHIBITORS OF THE HAEMATOPOIETIC PROGENITOR KINASE 1 (HPK1)” (priority 2021, published 2024).

The target in one test is Lck (h) (Homo sapiens, UniProt P06239). Briefly: Lck Human  Kinase Enzymatic Radiometric Assay. It counts as biochemical. To be noted: read-out: Lck IC50 nM Range*. The method, boiled down: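 Substrate 33P-incorporation measured by scintillation counting after spotting on P30 filtermat and phosphoric acid washes. Human Lck reacted 40 min at RT in 50 mM Tris pH 7.5 with 10 mM MgAcetate, [gamma-33P]-ATP, 250 uM Cdc2 peptide, 0.1 mM EGTA and 0.1 mM Na3VO4.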
Sequence of Lck (h) (P06239 whole entry): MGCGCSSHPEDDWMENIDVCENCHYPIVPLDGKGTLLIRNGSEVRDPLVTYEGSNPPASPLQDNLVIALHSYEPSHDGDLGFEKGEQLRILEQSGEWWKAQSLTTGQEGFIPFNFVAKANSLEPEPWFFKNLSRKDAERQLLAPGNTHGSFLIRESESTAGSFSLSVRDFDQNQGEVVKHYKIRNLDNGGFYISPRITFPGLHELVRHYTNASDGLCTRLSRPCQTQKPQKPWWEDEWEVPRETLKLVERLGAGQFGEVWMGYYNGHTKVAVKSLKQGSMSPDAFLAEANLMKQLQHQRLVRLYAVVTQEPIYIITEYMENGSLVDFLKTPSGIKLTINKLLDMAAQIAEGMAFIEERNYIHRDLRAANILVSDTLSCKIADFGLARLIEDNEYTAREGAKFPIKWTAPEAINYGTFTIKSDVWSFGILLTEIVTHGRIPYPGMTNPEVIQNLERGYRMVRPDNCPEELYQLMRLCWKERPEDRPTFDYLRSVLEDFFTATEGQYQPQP

The target in test [1] is T1, Recombinant (1-346) HPK1 (h) (Homo sapiens, UniProt Q92918).
T1 construct: Recombinant (1-346) HPK1 (h) is incubated with 8 mM MOPS pH 7.0
T1 sequence (Q92918 1-346): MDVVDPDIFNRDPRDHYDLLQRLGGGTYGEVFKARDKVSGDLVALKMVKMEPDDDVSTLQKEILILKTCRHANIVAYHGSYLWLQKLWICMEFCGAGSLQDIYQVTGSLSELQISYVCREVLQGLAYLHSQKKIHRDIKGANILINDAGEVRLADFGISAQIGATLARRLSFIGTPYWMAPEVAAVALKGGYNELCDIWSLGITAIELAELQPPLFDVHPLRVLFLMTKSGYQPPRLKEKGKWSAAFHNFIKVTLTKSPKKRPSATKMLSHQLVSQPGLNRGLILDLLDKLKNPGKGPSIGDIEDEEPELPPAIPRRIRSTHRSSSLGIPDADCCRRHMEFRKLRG
The test is described as follows: HPK1 Human STE Kinase Enzymatic Radiometric Assay. It counts as biochemical. The note with it: read-out: HPK1 IC50 nM Range*. As for the experimental part: A stock solution of 10 mM of test compound is prepared in DMSO. The compound plate was prepared by 3-fold and 9-point serial dilutions. […] The reaction is initiated by The addition of the Mg/ATP mix. After incubation for 40 minutes at RT, the reaction is stopped by the addition of phosphoric acid to a concentration of 0.5%.

The IC50 is the concentration at which inhibition is half-maximal. Take `Nc1nc(F)c(-c2ccc(N3CCOCC3)cc2)cc1-c1cc(F)c2c(c1)CCNC2=O` [I-309, 6-(2-amino-6-fluoro-5-(4-morpholinophenyl)pyridin-3-yl)-8-fluoro-3,4-dihydroisoquinolin-1(2H)-one]: the IC50 on Lck (h) is over 1000 nM; in test [1] it was 0.1 to 10 nM.
Consider `CC(C)[C@@H]1CN(c2ccc(-c3cc(-c4ccc5c(c4)CCNC5=O)c(N)nc3F)c(F)c2)CCN1C` [I-49, (R)-6-(2-amino-6-fluoro-5-(2-fluoro-4-(3-isopropyl-4-methylpiperazin-1-yl)phenyl)pyridin-3-yl)-3,4-dihydroisoquinolin-1(2H)-one], for which the IC50 is over 1000 nM on Lck (h) and 0.1 to 10 nM in test [1].
Regarding `C[C@@H]1CCCN1c1ccc(-c2cc(-c3ccc4c(c3)CCNC4=O)c(N)nc2F)c(F)c1` [I-47, (R)-6-(2-amino-6-fluoro-5-(2-fluoro-4-(2-methylpyrrolidin-1-yl)phenyl)pyridin-3-yl)-3,4-dihydroisoquinolin-1(2H)-one], the IC50 was over 1000 nM on Lck (h) and 11 to 100 nM in test [1].
On to `CC(C)[C@@H]1CN(c2ccc(-c3cnc(N)c(-c4ccc5c(c4)CCNC5=O)c3F)cc2)CCO1` [I-4, (R)-6-(2-amino-4-fluoro-5-(4-(2-isopropylmorpholino)phenyl)pyridin-3-yl)-3,4-dihydroisoquinolin-1(2H)-one], for which the IC50 is over 1000 nM at Lck (h) and 11 to 100 nM in test [1].
Turning to `Cc1[nH]c(=O)c2ccc(-c3cc(-c4ccc(N5CCN(C(C)C)CC5)cc4)c(F)nc3N)cc2c1F` [I-381, 6-(2-amino-6-fluoro-5-(4-(4-isopropylpiperazin-1-yl)phenyl)pyridin-3-yl)-4-fluoro-3-methylisoquinolin-1(2H)-one], the IC50 was over 1000 nM at Lck (h) and 101 to 1000 nM in test [1].
As to `CCN1C[C@H]2C[C@@]2(c2ccc(-c3cc(-c4ccc5c(c4)CCNC5=O)c(N)nc3F)cc2)C1` [I-71, 6-(2-amino-5-(4-((1R,5S)-3-ethyl-3-azabicyclo[3.1.0]hexan-1-yl)phenyl)-6-fluoropyridin-3-yl)-3,4-dihydroisoquinolin-1(2H)-one], the IC50 at Lck (h) was over 1000 nM; in test [1], 0.1 to 10 nM.
As to `Nc1nc(F)c(-c2ccc(N3C[C@H]4COC[C@H]4C3)cc2)cc1-c1ccc2c(c1)CCNC2=O` [I-91, 6-(2-amino-6-fluoro-5-(4-((3aR,6aS)-tetrahydro-1H-furo[3,4-c]pyrrol-5(3H)-yl)phenyl)pyridin-3-yl)-3,4-dihydroisoquinolin-1(2H)-one], the IC50 was over 1000 nM on Lck (h) and 11 to 100 nM in test [1].
Taken in the same sequence, the figures for `Nc1nc(F)c(-c2ccc(OC3CCN(C(=O)CC4CC4)CC3)cc2)cc1-c1cc2c(cc1F)C(=O)NCC2` [I-323, 6-(2-amino-5-(4-((1-(2-cyclopropylacetyl)piperidin-4-yl)oxy)phenyl)-6-fluoropyridin-3-yl)-7-fluoro-3,4-dihydroisoquinolin-1(2H)-one] were over 1000 nM and 0.1 to 10 nM.
Consider `Nc1nc(F)c(-c2ccc(C3(F)CNC3)cc2)cc1-c1ccc2c(c1)CCNC2=O` [I-340, 6-(2-amino-6-fluoro-5-(4-(3-fluoroazetidin-3-yl)phenyl)pyridin-3-yl)-3,4-dihydroisoquinolin-1(2H)-one 2,2,2-trifluoroacetate], for which the IC50 at Lck (h) was over 1000 nM; in test [1] it was 0.1 to 10 nM.
Regarding `COCCN1CCC(F)(c2ccc(-c3cc(-c4ccc5c(c4)CCNC5=O)c(N)nc3F)cc2)CC1` [I-251, 6-(2-amino-6-fluoro-5-(4-(4-fluoro-1-(2-methoxyethyl)piperidin-4-yl)phenyl)pyridin-3-yl)-3,4-dihydroisoquinolin-1(2H)-one], the IC50 on Lck (h) is over 1000 nM; in test [1], 0.1 to 10 nM.
As to `CC(C)S(=O)(=O)c1ccc(-c2cnc(N)c(-c3ccc4c(c3)CCNC4=O)c2F)cc1` [I-3, 6-(2-amino-4-fluoro-5-(4-(isopropylsulfonyl)phenyl)pyridin-3-yl)-3,4-dihydroisoquinolin-1(2H)-one], the IC50 at Lck (h) is over 1000 nM; in test [1] it was 11 to 100 nM.
